Assay results reported in patent US20260315434A1, “USE OF GUAIACOL SESQUITERPENE LACTONE DERIVATIVES” (NANJING UNIVERSITY OF CHINESE MEDICINE, priority 2023, published 2026).
Like-named read-outs stand apart in the source and are kept apart here.

Experiments:
MDSCs = experiment: Proportion of MDSCs in tumor and spleen of H22 xenograft mice (flow cytometry); format: in vivo, BALB/c mice; settings: for Spleen MDSCs (%) / Tumor-associated MDSCs (%): 40 μmol/kg/day, oral, 2 weeks, flow cytometry
Experimental: Once all tumors were dissected, nail-sized tumor pieces were transferred to 1.5 mL Eppendorf tubes and minced with scissors. Transfer the minced tumor tissue suspension to a 15 mL centrifuge tube containing 3-5 mL of digestive enzymes (Collagenase IV 1 mg/mL, Hyaluronidase 1 mg/mL, DNase 120 U/mL). Incubate at 200 rpm and 37° C. for 1 hour. After digestion, pass the mixture through a 200-mesh sieve to obtain the tumor cell suspension. Centrifuge the resulting tumor suspension at 1600 rpm for 5 min, aspirate the supernatant, resuspend cells in 1 mL of 1×PBS per tube. Transfer the cell suspension to a 1.5 mL Eppendorf tube, centrifuge at 1600 rpm for 5 min, remove the supernatant, resuspend cells in 100 μL of 1×PBS per tube, add 1 μL of dead/live dye to each tube, mix thoroughly, and incubate at room temperature in the dark for 15 min. […] Position the spleen on a 200-mesh cell strainer. Gently press the spleen using a 10 mL syringe needle. […] Transfer the washed splenocyte suspension into a 15 mL centrifuge tube. Centrifuge at 1600 rpm for 5 min to collect cells. Wash once with 1×PBS. Add 3 mL red blood cell lysis buffer (diluted with ddH2O) to each tube and incubate for 5 min. After lysis, add 10 mL 1×PBS to each tube to terminate lysis. Centrifuge at 1600 rpm for 5 min. Add 1 mL 1×PBS to each 15 mL centrifuge tube, transfer to 1.5 mL EP tubes, and centrifuge at 1600 rpm for 5 min. Add 1 mL 1×PBS to each tube containing stained tumor cells and lysed spleen cells for one wash, centrifuge at 1600 rpm for 5 min, and remove the supernatant. Resuspend tumor cells and spleen cells separately in 100 μL 1×PBS. Add 1 μL FcX™ antibody to each tube and incubate at room temperature in the dark for 10 min. After incubation, sequentially add 1 μL each of CD45, CD11b, Gr1 antibodies. Incubate at 4° C. in the dark for 30 min. After incubation, wash once with 1×PBS, discard the supernatant, resuspend cells in 300 μL 1×PBS, filter the membrane into a flow cytometry tube, and proceed to instrument analysis.

4T1 cells = experiment: Antitumor effect in 4T1 mouse mammary carcinoma xenograft model; format: in vivo, BALB/c mice; settings: for Tumor inhibition rate (%) / Tumor weight: 40 μmol/kg/day, 4T1
Experimental: 4T1 cells were cultured and expanded in vitro. […] A 100 μL aliquot of this suspension was injected subcutaneously into the left forelimb axilla of female BALB/c mice. […] Daily oral administration was performed for 3 weeks. During the treatment period, mouse body weight and tumor diameter were measured daily. At the end of the experiment, mice were euthanized by cervical dislocation, and tumors were removed for weighing. Tumor volume (TV) was calculated using the formula: TV=½×a×b^2, where a represents the longest diameter of the tumor and b represents the shortest diameter.

H22 cells = experiment: Antitumor effect in H22 mouse hepatocellular carcinoma subcutaneous xenograft model; format: in vivo, BALB/c mice; settings: for Tumor Suppression Rate (%) / Tumor weight: 40 μmol/kg/day, H22 xenograft
[1] = test system: fibrosis-related factors (α-Sma, Col1a1, Tgfb1) in kidney tissue; experiment: Folic acid-induced kidney injury, renal fibrosis-related factor mRNA; format: in vivo, C57BL/6 mice; settings: folic acid model
Experimental: Except for the normal group, all other mice were administered folic acid (250 mg/kg) dissolved in 0.9% NaHCO3 solution via intraperitoneal injection to establish an acute kidney injury model.
The blood was allowed to stand at room temperature for 2 hours, then centrifuged at 3000 rpm for 20 minutes. Serum was aspirated, aliquoted, and stored at −70° C. for future use. Following blood collection, euthanize mice by cervical dislocation. Perform laparotomy to remove kidneys, dissect out perirenal fat and capsules. […] Paraffin-embedded specimens undergo HE staining; remaining tissue is stored at −70° C. for future use.

[2] = Conversion (release) of prodrug salts to parent compound in HEPES buffer pH 7.4; format: in vitro ADME; settings: for Release rate (conversion to Compound 1): HEPES pH 7.4, 37 °C; for degraded at 1 h / degraded at 2 h / degraded at 4 h / degraded at 8 h / degraded at 12 h: hepes buffer, pH 7.4, HEPES pH 7.4, 37 °C
In short: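 Salt dissolved in water, mixed 1:1 with HEPES solution pH 7.4 (NaCl, KCl, Na2HPO4, glucose) and held at 37° C. At 1, 2, 4, 8 and 12 h, samples were methanol-quenched, centrifuged and analysed by reversed-phase HPLC at 210 nm, with peak areas recorded for conversion to parent compound.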

[3] = Conversion (release) of prodrug salts to parent compound in mouse plasma; format: in vitro ADME; settings: 37 °C; for metabolised at 1 h / metabolised at 2 h / metabolised at 4 h / metabolised at 8 h / metabolised at 12 h: mouse, plasma
In short: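 Salts (0.6 mg in 250 μL water) were mixed 1:1 with heparinized mouse plasma or HEPES pH 7.4 and incubated at 37 °C. Samples were methanol-quenched and taken at 1–12 h. Parent compound was quantified by C18 HPLC-UV at 210 nm using peak areas.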

[4] = compared with solvent control, result in words
[5] = 1 h, read-out: Release rate (conversion to Compound 83)
[6] = 2 h, read-out: Release rate (conversion to Compound 83)
[7] = 4 h, read-out: Release rate (conversion to Compound 83)
[8] = 8 h, read-out: Release rate (conversion to Compound 83)
[9] = 12 h, read-out: Release rate (conversion to Compound 83)
[10] = 1 h, read-out: Release rate (conversion to Compound 82)
[11] = 2 h, read-out: Release rate (conversion to Compound 82)
[12] = 4 h, read-out: Release rate (conversion to Compound 82)
[13] = 8 h, read-out: Release rate (conversion to Compound 82)
[14] = 12 h, read-out: Release rate (conversion to Compound 82)

| Compound | Spleen MDSCs (%) (MDSCs) | Tumor-associated MDSCs (%) (MDSCs) | proportion of MDSCs in tumor tissues and spleens (MDSCs; [4]) | Col1a1 mRNA expression, kidney ([1]; 1 mg/kg oral, 1 mg/kg) | Tgfb1 mRNA expression, kidney ([1]; 1 mg/kg oral, 1 mg/kg) | α-Sma mRNA expression, kidney ([1]; 1 mg/kg oral, 1 mg/kg) | Tumor inhibition rate (%) (4T1 cells; oral, 3 weeks) | Tumor weight (4T1 cells; oral, 3 weeks) | antitumor effect, 4T1 (4T1 cells; oral, 3 weeks, result in words) | Release rate (conversion to Compound 1) ([2]; 1 h, 60 min) | Release rate (conversion to Compound 1) ([2]; 2 h, 120 min) | Release rate (conversion to Compound 1) ([2]; 4 h, 240 min) | Release rate (conversion to Compound 1) ([2]; 8 h, 480 min) | Release rate (conversion to Compound 1) ([2]; 12 h, 720 min) | Release rate (conversion to Compound 1) ([3]; 1 h, 60 min) | Release rate (conversion to Compound 1) ([3]; 2 h, 120 min) | Release rate (conversion to Compound 1) ([3]; 4 h, 240 min) | Tumor Suppression Rate (%) (H22 cells; oral, 2 weeks) | Tumor weight (H22 cells; oral, 2 weeks) | tumor-inhibiting effect, H22 (H22 cells; oral, 2 weeks, result in words) | other results |
| --- | --- | --- | --- | --- | --- | --- | --- | --- | --- | --- | --- | --- | --- | --- | --- | --- | --- | --- | --- | --- | --- |
| C=C1C(=O)O[C@@H]2[C@H]3C(C)=CC[C@@]34O[C@@]4(C)CC[C@@H]12 [Arg, Arglabin, reference compound] | – | – | – | – | – | – | – | – | – | – | – | – | – | – | – | – | – | – | – | – | proportion of MDSCs in tumor tissues and spleens (MDSCs; mouse, in vivo): significantly reduced; antitumor effect, 4T1 (4T1 cells; mouse, in vivo, po): no significant antitumor effects; tumor-inhibiting effect, H22 (H22 cells; mouse, in vivo, po): tumor-inhibiting effects |
| CN(C)C[C@@H]1C(=O)O[C@H]2[C@H]1CC[C@@]1(C)C[C@]13CC[C@@](C)(O)[C@H]23 [Compound 20] | 23.10 ± 5.35 % | 7.86 ± 6.19 % | significantly reduced | 1.18 ± 0.15 | 0.98 ± 0.27 | 1.11 ± 0.17 | −15.24% | 2.09 ± 0.60 g | no significant antitumor effects | 6.2% | 13.8% | 21.7% | 44.3% | 59.1% | 7.3% | 12.9% | 28.6% | 70.86% | 4.88 ± 0.87 g | tumor-inhibiting effects | Release rate (conversion to Compound 1) ([3]; 8 h, 480 min): 46.8%; Release rate (conversion to Compound 1) ([3]; 12 h, 720 min): 62.9% |
| CN(C)C[C@@H]1C(=O)O[C@H]2[C@H]1CC[C@@]1(C)C[C@]13CC[C@@](C)(O)[C@H]23 [Compound 21] | – | – | – | 1.20 ± 0.19 | 1.09 ± 0.15 | 0.90 ± 0.21 | – | – | – | 3.3% | 10.2% | 18.1% | 38.9% | 51.9% | 5.4% | 10.7% | 17.9% | – | – | – | Col1a1 mRNA expression, kidney ([1]; 0.1 mg/kg oral): 1.58 ± 0.35; Tgfb1 mRNA expression, kidney ([1]; 0.1 mg/kg oral): 1.64 ± 0.16; α-Sma mRNA expression, kidney ([1]; 0.1 mg/kg oral): 1.80 ± 0.42; Release rate (conversion to Compound 1) ([3]; 8 h, 480 min): 39.3%; Release rate (conversion to Compound 1) ([3]; 12 h, 720 min): 55.4% |
| CC1=C2CC[C@@](C)(OC(=O)N3CCCCC3)[C@@H]2[C@H]2OC(=O)[C@@H](CN(C)C)[C@@H]2CC1 [Compound 102] | 30.37 ± 9.84 % | 32.11 ± 6.33 % | significantly reduced | – | – | – | −20.37% | 2.18 ± 1.34 g | no significant antitumor effects | – | – | – | – | – | – | – | – | 27.99% | 6.13 ± 1.48 g | tumor-inhibiting effects | degraded at 1 h [2, 5]: 6.8%; degraded at 2 h [2, 6]: 14.6%; degraded at 4 h [2, 7]: 24.8%; degraded at 8 h [2, 8]: 43%; degraded at 12 h [2, 9]: 51.8%; metabolised at 1 h [3, 5]: 6.6%; metabolised at 2 h [3, 6]: 14%; metabolised at 4 h [3, 7]: 26%; metabolised at 8 h [3, 8]: 42.4%; metabolised at 12 h [3, 9]: 47.8% |
| CC1=C2CC[C@@](C)(OC(=O)N3CCCC3)[C@@H]2[C@H]2OC(=O)[C@@H](CN3CCCC3)[C@@H]2CC1 [Compound 103] | 24.33 ± 5.02 % | 10.62 ± 6.50 % | significantly reduced | – | – | – | – | – | no significant antitumor effects | – | – | – | – | – | – | – | – | 60.34% | 5.02 ± 0.48 g | tumor-inhibiting effects | Col1a1 mRNA expression, kidney ([1]; 0.1 mg/kg oral): 2.45 ± 0.63; α-Sma mRNA expression, kidney ([1]; 0.1 mg/kg oral): 3.50 ± 1.91; Col1a1 mRNA expression, kidney ([1]; 1 mg/kg oral): 2.25 ± 0.58; α-Sma mRNA expression, kidney ([1]; 1 mg/kg oral): 3.03 ± 0.99; Col1a1 mRNA expression, kidney ([1]; 10 mg/kg oral): 1.93 ± 0.41; α-Sma mRNA expression, kidney ([1]; 10 mg/kg oral): 1.55 ± 0.61; degraded at 1 h [2, 10]: 6.4%; degraded at 2 h [2, 11]: 14.2%; degraded at 4 h [2, 12]: 26%; degraded at 8 h [2, 13]: 45.6%; degraded at 12 h [2, 14]: 52.6%; metabolised at 1 h [3, 10]: 7.2%; metabolised at 2 h [3, 11]: 13.2%; metabolised at 4 h [3, 12]: 26.8%; metabolised at 8 h [3, 13]: 44.5%; metabolised at 12 h [3, 14]: 53.4% |
